Earlier results as cited in US20030158237A1, “Combination of antioxidant substances for the treatment of alzheimer's disease” (priority 2001, published 2003).

What was measured:
isolated LDL = details: 0.025-0.3 mg/l added to isolated LDL; dose dependent
[1] = tested on: NF-kappa B binding induced by ceramide; details: in comparison with N-acetylcystein, acetate d-alpha-tocopherol, ascorbic acid
[2] = tested on: DNA fragmentation induced by low-dose t-BuOOH; details: mouse
341 patients = details: single-agent therapy, 2 years; vitamin E 2,000 UI/daily, selegiline 10 mg daily
[3] = tested on: hippocampal cell cultures

## O=C(O)C=Cc1ccc(O)c(O)c1 [caffeic acid, 3-(3,4-Dihydroxyphenyl)-2-propenoic acid]
Isolated LDL
  time of oxidation of LDL: prolonged
[1]
  activity of the NF-kappa B binding induced by ceramide: inhibits significantly
  apoptotic response induced by ceramide: inhibits significantly

## NC(=O)c1cccnc1 [nicotinamide]
[2]
  DNA fragmentation: able to prevent DNA fragmentation

## C#CCN(C)[C@H](C)Cc1ccccc1 [selegiline]
341 patients
  retarded cognitive deterioration: 25%

## vitamin E
341 patients
  retarded cognitive deterioration: 25%
3000 IU
  adverse effects with high doses: indigestion, gastric distress, diarrhea and severe cramps
In vivo
  adverse symptoms (uncommon): cataract, haemorrhage risk in patient with vitamin K deficiency, and syncope
[3]
  beta A4 induced cell death: reduces beta A4 induced cell death
